Assay results as given in patent US10994016B2, “Graphene oxide mediated cellular delivery of gadolinium-labeled molecules” (Northwestern University, priority 2015, dated 2021).
Values joined by “and” are separate entries in the source; they are usually repeats but may differ in a detail not shown here. Identical values can stand only once.

System: not listed separately
Assay: Octanol-water partition coefficients
Assay type: physicochemical
Details: errors show SEM; Gd in each layer by ICP-MS
Experimental: Approximately 1 mg of each compound was dissolved in 1 mL of a 1:1 mixture of water/1-octanol. After shaking the sample tube vigorously for 30 s, the tube was placed on a rotator for gentle mixing over 6 h. The tube was then removed from the rotator and allowed to sit for 12 h to ensure complete separation of the aqueous and organic phases. […] Once separation was complete, 10 μL was removed from each layer to determine the concentration of Gd by ICP-MS. The partition coefficient was calculated from the following equation: log10P=log10(Co/Cw), where log10 P is the logarithm of the partition coefficient, Co is the concentration of Gd in the 1-octanol layer, and Cw is the concentration of Gd in the water layer.

SMILES	Water-Octanol LogP
CCCCc1cn(CC(O)CN2CCN(CC(=O)[O-])CCN(CC(=O)[O-])CCN(CC(=O)[O-])CC2)nn1.[Gd+3] (centres unmarked) [Molecule 1]	−2.18 ± 0.02
O=C([O-])CN1CCN(CC(=O)[O-])CCN(CC(O)Cn2cc(CCCO)nn2)CCN(CC(=O)[O-])CC1.[Gd+3] (centres unmarked) [Molecule 2]	−3.98 ± 0.06
O=C([O-])CN1CCN(CC(=O)[O-])CCN(CC(O)Cn2cc(CCCOP(=O)(O)O)nn2)CCN(CC(=O)[O-])CC1.[Gd+3] (centres unmarked) [Molecule 3]	−4.05 ± 0.17
O=C([O-])CN1CCN(CC(=O)[O-])CCN(CC(O)Cn2cc(CCCC(=O)O)nn2)CCN(CC(=O)[O-])CC1.[Gd+3] (centres unmarked) [Molecule 4]	−3.44 ± 0.28
C[N+](C)(C)CCCc1cn(CC(O)CN2CCN(CC(=O)[O-])CCN(CC(=O)[O-])CCN(CC(=O)[O-])CC2)nn1.[Gd+3] (centres unmarked) [Molecule 5]	−4.33 ± 0.46

System: HeLa cells
Assay: Cellular delivery studies with and without GO co-incubation, HeLa
Assay type: cell-based
Details: +150 nm GO co-incubation; 188 μM Gd(III), 18.8 μg/mL GO, 24 h; replicate values
Experimental: ICP-MS Samples were prepared in 15-mL conical tubes by adding ACS reagent grade nitric acid (70%), followed by incubation at 70° C. overnight to allow for complete sample digestion. The effectiveness of this digestion protocol was previously validated for GO. After incubation, a multi-element internal standard (containing Bi, Ho, In, Li, Sc, Tb, and Y, Inorganic Ventures, Christiansburg, Va.) and milli-Q water (18.2 MΩ·cm) were added to produce a final sample of 3% (v/v) nitric acid and 5 ng/mL internal standard.
ICP-MS was performed on a computer-controlled (Plasmalab software) Thermo X series II ICP-MS (Thermo Fisher Scientific, Waltham, Mass., USA) operating in standard mode equipped with an ESI SC-2 autosampler (Omaha, Nebr., USA). Each sample was acquired using 1 survey run (10 sweeps) and 3 main (peak jumping) runs (100 sweeps). The isotopes selected for analysis were Gd with In and Ho isotopes selected as internal standards for data interpolation. Instrument performance is optimized daily through an autotune followed by verification via a performance report (passing manufacturer specifications). Instrument calibration was accomplished by preparing individual-element Gd standards (Inorganic Ventures, Christiansburg, Va., USA) using concentrations of 0.78125, 1.5625, 3.125, 6.25, 12.50, 25.00, 50.00, 100.0, and 200.0 ng/mL containing 3.0% nitric acid (v/v) and 5.0 ng/mL of multi-element internal standard.
Dulbecco's modified phosphate buffered saline (DPBS), media, and dissociation reagents were purchased from Life Technologies (Carlsbad, Calif.). CorningBrand® cell culture consumables (flasks, plates, etc.) and sera were purchased from VWR Scientific (Radnor, Pa.). HeLa cells (ATCC® CCL-2™) and KB cells (ATCC® CCL-17™) were purchased from the American Type Culture Collection (ATCC, Manassas, Va.) and cultured in phenol red-free minimum essential media (MEM) supplemented with 10% fetal bovine serum (FBS). Prior to all experiments, cells were plated and allowed to incubate for 24 hours before dosing. Cells were harvested with 0.25% TrypLE for 5 minutes at 37° C. in a 5.0% CO2 incubator. For sterilization, all Gd(III)-labeled molecules were filtered with 0.2 μm sterile filters prior to concentration determination and storage at 4° C. GO was used as prepared without further sterilization. […] Cells were grown in a humidified incubator operating at 37° C. and 5.0% CO2.
Cell counting was conducted using a Guava EasyCyte Mini Personal Cell Analyzer (EMD Millipore, Billerica, Mass.). After cell harvesting, an aliquot (50 μL) of the cell suspensions was mixed with Guava ViaCount reagent (150 μL) and allowed to stain at room temperature for at least 5 minutes. The dilution factor of 4 was determined based upon optimum machine performance (20-150 cells/μL). After vortexing for 10 sec, stained cells were counted using a Guava EasyCyte Mini Personal Cell Analyzer (PCA) using the ViaCount software module. For each sample, 1000 events were acquired. Gating of live/dead and cell/debris classifications were performed manually by the operator.
Cellular delivery studies were performed with HeLa and KB cells. HeLa and KB were plated at a cell density of approximately 25,000 and 50,000 cells per well, respectively, in a 24-well plate as counted by a hemocytometer. Stock solutions of 1-14 (1 mM), 150 nm GO (100 μg/mL), and 1500 nm GO (100 μg/mL) were prepared using sterile Milli-Q water. Prior to dosing, 80 μL ([…]) of each GO (150 nm and 1500 nm) and 80 μL (80 nmol) of each Gd(III)-labeled molecule (1-14) were mixed and allowed to adsorb for at least 15 minutes. 150 μL Gd(III)-GO solutions were added to 250 μL media to give a final concentration of 188 μM Gd and 18.8 μg/mL GO. Cells were incubated with the mixture of Gd(III)-labeled molecules and GO for […]. To harvest, cells were rinsed in-plate three times with 500 μL PBS and trypsinized using 100 μL 0.25% TrypLE. […]

SMILES	Gd content (fmol/cell)
CCCCc1cn(CC(O)CN2CCN(CC(=O)[O-])CCN(CC(=O)[O-])CCN(CC(=O)[O-])CC2)nn1.[Gd+3] (centres unmarked) [Molecule 1]	0.63 fmol/cell (2×) and 0.44 fmol/cell and 0.58 fmol/cell and 0.57 fmol/cell (2×) and 0.76 fmol/cell
O=C([O-])CN1CCN(CC(=O)[O-])CCN(CC(O)Cn2cc(CCCO)nn2)CCN(CC(=O)[O-])CC1.[Gd+3] (centres unmarked) [Molecule 2]	0.84 fmol/cell and 0.81 fmol/cell and 0.90 fmol/cell
O=C([O-])CN1CCN(CC(=O)[O-])CCN(CC(O)Cn2cc(CCCOP(=O)(O)O)nn2)CCN(CC(=O)[O-])CC1.[Gd+3] (centres unmarked) [Molecule 3]	1.84 fmol/cell and 1.36 fmol/cell and 1.29 fmol/cell
O=C([O-])CN1CCN(CC(=O)[O-])CCN(CC(O)Cn2cc(CCCC(=O)O)nn2)CCN(CC(=O)[O-])CC1.[Gd+3] (centres unmarked) [Molecule 4]	0.31 fmol/cell and 0.23 fmol/cell (2×) and 0.33 fmol/cell and 0.25 fmol/cell and 0.13 fmol/cell and 0.16 fmol/cell and 0.17 fmol/cell and 0.20 fmol/cell and 0.29 fmol/cell and 0.22 fmol/cell
C[N+](C)(C)CCCc1cn(CC(O)CN2CCN(CC(=O)[O-])CCN(CC(=O)[O-])CCN(CC(=O)[O-])CC2)nn1.[Gd+3] (centres unmarked) [Molecule 5]	0.37 fmol/cell and 0.29 fmol/cell and 0.42 fmol/cell and 0.43 fmol/cell

Same assay, conditions: +150 nm GO; values removed as outliers (Chauvenet's criterion, * experimenter judgment)

SMILES	Gd content (fmol/cell), Outliers
CCCCc1cn(CC(O)CN2CCN(CC(=O)[O-])CCN(CC(=O)[O-])CCN(CC(=O)[O-])CC2)nn1.[Gd+3] (centres unmarked) [Molecule 1]	1.11 fmol/cell and 1.24 fmol/cell
O=C([O-])CN1CCN(CC(=O)[O-])CCN(CC(O)Cn2cc(CCCC(=O)O)nn2)CCN(CC(=O)[O-])CC1.[Gd+3] (centres unmarked) [Molecule 4]	0.66 fmol/cell and 0.76 fmol/cell and 0.62 fmol/cell
C[N+](C)(C)CCCc1cn(CC(O)CN2CCN(CC(=O)[O-])CCN(CC(=O)[O-])CCN(CC(=O)[O-])CC2)nn1.[Gd+3] (centres unmarked) [Molecule 5]	2.73 fmol/cell

Same assay, conditions: +1500 nm GO co-incubation; 188 μM Gd(III), 18.8 μg/mL GO, 24 h; replicate values

SMILES	Gd content (fmol/cell)
CCCCc1cn(CC(O)CN2CCN(CC(=O)[O-])CCN(CC(=O)[O-])CCN(CC(=O)[O-])CC2)nn1.[Gd+3] (centres unmarked) [Molecule 1]	0.59 fmol/cell and 0.58 fmol/cell and 0.39 fmol/cell and 0.77 fmol/cell and 0.86 fmol/cell and 0.76 fmol/cell and 0.64 fmol/cell
O=C([O-])CN1CCN(CC(=O)[O-])CCN(CC(O)Cn2cc(CCCO)nn2)CCN(CC(=O)[O-])CC1.[Gd+3] (centres unmarked) [Molecule 2]	0.59 fmol/cell and 0.88 fmol/cell and 0.70 fmol/cell
O=C([O-])CN1CCN(CC(=O)[O-])CCN(CC(O)Cn2cc(CCCOP(=O)(O)O)nn2)CCN(CC(=O)[O-])CC1.[Gd+3] (centres unmarked) [Molecule 3]	1.61 fmol/cell and 1.64 fmol/cell and 1.41 fmol/cell
O=C([O-])CN1CCN(CC(=O)[O-])CCN(CC(O)Cn2cc(CCCC(=O)O)nn2)CCN(CC(=O)[O-])CC1.[Gd+3] (centres unmarked) [Molecule 4]	0.58 fmol/cell and 0.27 fmol/cell and 0.33 fmol/cell and 0.30 fmol/cell and 0.31 fmol/cell and 0.53 fmol/cell
C[N+](C)(C)CCCc1cn(CC(O)CN2CCN(CC(=O)[O-])CCN(CC(=O)[O-])CCN(CC(=O)[O-])CC2)nn1.[Gd+3] (centres unmarked) [Molecule 5]	0.42 fmol/cell and 0.36 fmol/cell and 0.32 fmol/cell

Same assay, conditions: +1500 nm GO; values removed as outliers (Chauvenet's criterion, * experimenter judgment)

SMILES	Gd content (fmol/cell), Outliers
CCCCc1cn(CC(O)CN2CCN(CC(=O)[O-])CCN(CC(=O)[O-])CCN(CC(=O)[O-])CC2)nn1.[Gd+3] (centres unmarked) [Molecule 1]	1.18 fmol/cell and 1.45 fmol/cell
O=C([O-])CN1CCN(CC(=O)[O-])CCN(CC(O)Cn2cc(CCCC(=O)O)nn2)CCN(CC(=O)[O-])CC1.[Gd+3] (centres unmarked) [Molecule 4]	1.00 fmol/cell

Same assay, conditions: molecule alone, without GO; 188 μM Gd(III), 24 h, 24-well plate; replicate values

SMILES	Gd content (fmol/cell)
CCCCc1cn(CC(O)CN2CCN(CC(=O)[O-])CCN(CC(=O)[O-])CCN(CC(=O)[O-])CC2)nn1.[Gd+3] (centres unmarked) [Molecule 1]	0.62 fmol/cell and 0.67 fmol/cell and 0.36 fmol/cell and 0.63 fmol/cell and 0.40 fmol/cell
O=C([O-])CN1CCN(CC(=O)[O-])CCN(CC(O)Cn2cc(CCCO)nn2)CCN(CC(=O)[O-])CC1.[Gd+3] (centres unmarked) [Molecule 2]	0.30 fmol/cell and 0.38 fmol/cell and 0.36 fmol/cell
O=C([O-])CN1CCN(CC(=O)[O-])CCN(CC(O)Cn2cc(CCCOP(=O)(O)O)nn2)CCN(CC(=O)[O-])CC1.[Gd+3] (centres unmarked) [Molecule 3]	0.74 fmol/cell and 0.90 fmol/cell and 0.65 fmol/cell
O=C([O-])CN1CCN(CC(=O)[O-])CCN(CC(O)Cn2cc(CCCC(=O)O)nn2)CCN(CC(=O)[O-])CC1.[Gd+3] (centres unmarked) [Molecule 4]	0.51 fmol/cell and 0.26 fmol/cell and 0.25 fmol/cell and 0.23 fmol/cell and 0.34 fmol/cell and 0.36 fmol/cell
C[N+](C)(C)CCCc1cn(CC(O)CN2CCN(CC(=O)[O-])CCN(CC(=O)[O-])CCN(CC(=O)[O-])CC2)nn1.[Gd+3] (centres unmarked) [Molecule 5]	0.52 fmol/cell and 0.29 fmol/cell and 0.25 fmol/cell and 0.35 fmol/cell and 0.37 fmol/cell

Same assay, conditions: molecule alone, without GO; values removed as outliers (Chauvenet's criterion, * experimenter judgment)

SMILES	Gd content (fmol/cell), Outliers
O=C([O-])CN1CCN(CC(=O)[O-])CCN(CC(O)Cn2cc(CCCC(=O)O)nn2)CCN(CC(=O)[O-])CC1.[Gd+3] (centres unmarked) [Molecule 4]	0.76 fmol/cell
